In patent US20090061022A1, “Pharmaceutical composition comprising arsenite for the treatment of malignancy” (priority 2004, published 2009):
Several values for one entry are separate records, joined by “and”; a condition that tells them apart may be missing. Equal values may be shown once. Marks after values point to notes of the source that are not given here.

Tests used:
[1] = tested on: ALL-SCID 4; assay: Anticancer activity in human leukemia model ALL-SCID 4
Description: Anticancer activity of the sodium meta-arsenite and arsenic trioxide against two human paediatric acute lymphoblastic leukemia (ALL) models in vivo, ALL-SCID 4 was investigated to compare.
Male NOD/SCID mice (deficient in T and B lymphocytes, NK cells and functional macrophages) were transplanted s.c. on day 0 with fragments of ALL-SCID 4 cancers, which were obtained from mice used for routine passage of the cancers. Mice were randomized to the scheduled treatment groups.
Sodium meta-arsenite was administered orally at 2, 4 and 6 mg/kg/day (⅓ MTD, ⅔ MTD and MTD) once every day from day 34-54 after transplantation. The vehicle control (5% glucose in water) was administered i.p. (10 ml/kg).
Sodium meta-arsenite was dissolved in ready-to-use sterile infusion (5% (w/v) glucose in aqua injectabila). Arsenic trioxide was dissolved in 25 mM NaOH then dissolved in 5% glucose in aqua injectabila. The solutions were prepared freshly on the day of therapy for each administration.

[2] = tested on: RXF393NL (renal); details: resistant
Procedure: (§1) Nine kinds of human cancer cell lines out of six kinds of cancers were grown at 37° C. under a controlled atmosphere of 95% air and 5% CO2. The cells were grown on monolayer cultures of RPMI 1640 cell culture medium supplemented with 10% fetal calf serum.
(§2) The grown cells were harvested from exponential phase cultures by trypsinization and counted. The counted cells were placed in a plate, which has ninety six wells. Each well on the plate is in a shape of a flat-bottomed microtitre. Density of the cells in a suspension was adjusted depending on the cell line. The suspension was prepared by diluting the grown cells with the culture medium (RPMI 1640). Concentration of the cells were varied from 5×10^4 to 1×10^5 viable cells/ml. 100 μl of the suspension was placed in each well of the plate. […] Then add 50 μl of culture medium (RPMI 1640) only to 6 wells, 50 μl/well, among the 96 wells of one plate. It is called controlled. One well is filled with culture medium plus 5-FU. And another 50 μl of culture medium plus one of the stock solutions were added to each of the left 89 wells to allow cells to resume exponential growth.
(§3) In a further study, the cytotoxic activity profile of sodium meta-arsenite and arsenic acid sodium salt was investigated in different panels containing twelve (12) human cancer cell lines from eight (8) kinds of human cancers. The cancer cell samples were prepared as described in 1-1-B. Propidium iodide fluorescence assay method for this test was modified as the follows.

[3] = tested on: GXF 251L (gastric); details: resistant
Procedure: as §1, §2, §3

[4] = tested on: LXFA 629L; details: LXFA 629L non-small cell lung; resistant
Procedure: as §1, §2, §3

[5] = tested on: LXFE 66NL; details: LXFE 66NL non-small cell lung; resistant
Procedure: as §1, §2, §3

[6] = tested on: panel of 9 human cancer cell lines; assay: Cytotoxic activity, whole panel of 9 human cancer cell lines (means, active/total); assay type: cell-based
Procedure: Three kinds of stock solutions were prepared for in vitro cytotoxic activity test. The first solution is DMSO (dimethyl sulfoxide) mixed with sodium meta-arsenite. […] The third solution is DMSO mixed with arsenic acid sodium salt. Those three solutions were diluted with culture medium (RPMI 1640). The final concentrations of DMSO in those three solutions are less than 0.3 vol %.
as §1
as §2, with “1640).” for “1640). Concentration of the cells were varied from 5×10^4 to 1×10^5 viable cells/ml. 100 μl of the suspension was placed in each well of the plate.”
The cytotoxic activity test was executed with three plates simultaneously to check reliability of the data obtained. The three plates contain the same samples of cancer cells. The three plates were then incubated for 3-7 days under the same controlled atmosphere and cell proliferation was assessed with a modified propodium iodide fluorescence assay. After thawing of the plates, fluorescence was measured using a Millipore Cytofluor 2350-microplate reader (excitation 530 nm emission 620 nm) in order to quantify the total cell number. The assay included untreated and positive controls containing 5-FU.
Growth inhibition is defined as (numbers of cancer cell alive) treated (T)/(number of cells) control (C)×100% (T/C %).

[7] = tested on: panel of 12 human cancer cell lines; assay: Cytotoxic activity, whole panel of 12 human cancer cell lines, modified propidium iodide assay; details: panel of 12 human cancer cell lines, 4 days
Procedure: as §1, §2, §3

[8] = tested on: RXF 944LX; assay: Dose finding study in human renal cancer model RXF 944LX in nude mice (i.p. days 0, 7, 14); details: for Maximum Tolerated Dose (MTD): i.p. once daily on days 0, 7 and 14, RXF 944LX bearing nude mice
Description: In a dose finding study, the potential anticancer activity of sodium meta-arsenite and arsenic acid sodium salt versus arsenic trioxide was examined in the human renal cancer model, RXF 944LX.
(§4) Cancer fragments (1-2 mm in diameter), obtained from xenografts in serial passage in nude mice, were implanted subcutaneously (S.C.) in a flank of male NRMI nude mice (one fragment per mouse). Mice with appropriate cancer volumes (5-7 mm in diameter) were randomly distributed to treatment and control groups (4 mice/group). The start of treatment was day 0. Cancer volume and body weights were measured at least twice per week.
1) Sodium meta-arsenite (3, 10, 30 mg/kg/day), 2) Arsenic acid sodium salt (3, 10, 30 mg/kg/day) and 3) Arsenic trioxide (3, 10, 30 mg/kg/day) were administered intraperitoneally (i.p.) once daily on days 0, 7 and 14.
Stock solution of sodium meta-arsenite and arsenic acid sodium salt (3 mg/ml) were prepared in 5% (w/v) dextrose solution, respectively, to minimize acute arsenic toxicity. For arsenic trioxide, 9 mg of arsenic trioxide was dissolved in 1M NaOH (75 μl) followed by mixing with sterile aqua injectabilia (2175 μl) and sterile 20% (w/v) dextrose in water (500 μl). Further dilution to the desired concentration was done with a 5% dextrose solution to give a final concentration of 3 mg/ml.
(§5) The cancer volume of each animal was determined by two-dimensional measurement using calipers. The volume was calculated according to the formula: (a×b^2)×0.5; wherein a and b represent two perpendicular diameters in which a (length) is the larger diameter and b (width) the smaller diameter.
(§6) Relative cancer volumes (RCV) were calculated for each individual cancer by dividing the cancer volume on day X by the cancer volume on day 0 multiplied by 100%. The cancer volume of a treatment group was expressed as the median RCV of all mice of the group. Median RCV values were used for drawing growth curves and treatment evaluation. Optimal cancer growth inhibition at a particular day within the treatment period was calculated from the median RCV values of the treated (T) versus the controlled (C) group multiplied by 100%. A T/C value<50% was considered as anti-cancer activity.

[9] = tested on: RXF 944LX; assay: Anticancer activity in RXF 944LX cancer bearing nude mice, intermittent and daily schedules; details: for MTD: i.p., RXF 944LX
Procedure: as §4, §5, §6
In the experiment with renal cancer RXF 944LX, the anticancer activity of the compounds was explored using two administration schedules; 1) intermittent schedule of 4 days×3, and 2) a daily schedule for 2 weeks (days 0-4, 7-11).
The dose levels chosen for sodium meta-arsenite and arsenic acid sodium salt in these schedules were based on the experience in the 1st experiment. Additional small dose finding studies were executed.

[10] = rats, orally; cited from earlier work
[11] = cold water; cited from earlier work
[12] = tested on: panel of forty-one (41) human cancer cell lines; assay: Cytotoxic activity, panel of forty-one (41) human cancer cell lines
Description: In a next study, the cytotoxic activity of sodium meta-arsenite was head-to-head compared with arsenic trioxide in panels loaded with 41 cancer cell lines from ten human cancers.

[13] = mean over human cancer cell lines tested (9 line panel)
[14] = 32 mg/kg i.p., days 0-4, 7, 14-18
[15] = 10 mg/kg i.p., days 0, 7, 14, listed as arsenic trioxide
[16] = panel of 41 human cancer cell lines

## O=P1(N(CCCl)CCCl)NCCCO1 (stereo not shown) [Cyclophosphamide, reference compound]
[1]; 100 mg/kg i.p., day 25
  BW loss % (day): +4 (34) %
  Drug-related deaths: 0/8
  T/C %: 4* %

## arsenic acid sodium salt
[2]
  IC70: > 100 µg/mL
[3]
  IC70: > 100 µg/mL
[4]
  IC70: > 100 µg/mL
[5]
  IC70: > 100 µg/mL
[6]; 9 cell line panel
  Assessment from comparison of the IC50 values: inactive
[6]; [13]
  IC50: 99 µM
  IC90: 248 µM
  Mean IC50: 30.8 µg/mL
  Mean IC90: 77.5 µg/mL
[6]; mean over human cancer cell lines tested (9 line panel), sodium salt
  Mean IC70: 44.7 μg/ml and 143 μM
[7]
  Mean IC50: 25.5 µg/mL
  Mean IC90: 76.6 µg/mL
[7]; sodium salt
  Mean IC70: 40.1 μg/ml and 129 μM
[7]; read-out: Mean IC50
  IC50: 82 µM
[7]; read-out: Mean IC90
  IC90: 246 µM
[8]; 3 mg/kg i.p., days 0, 7, 14
  BW loss % (day): +15 (21) %
  Drug-related deaths: 0/4
  Rating: − (−T/C ≧ 50%)
  SGD (specific growth delay): −0.5
  T/C %: 90%
[8]; 10 mg/kg i.p., days 0, 7, 14
  BW loss % (day): +10 (21) %
  Drug-related deaths: 0/4
  Rating: − (−T/C ≧ 50%)
  SGD (specific growth delay): −0.2
  T/C %: 74%
[8]; 30 mg/kg i.p., days 0, 7, 14
  BW loss % (day): +14 (21) %
  Drug-related deaths: 0/4
  Rating: − (−T/C ≧ 50%)
  SGD (specific growth delay): 0.1
  T/C %: 88%
[8]; 3, 10, 30 mg/kg/day i.p., days 0, 7, 14
  T/C values of the 3 treatment groups: greater than 74%
[8]
  Maximum Tolerated Dose (MTD): greater than 30 mg/kg/day
[9]; 16 mg/kg i.p., days 0-4, 7-11
  BW loss % (day): −8 (14) %
  Drug-related deaths: 2/6
  SGD (specific growth delay): 0
  T/C %: 76%
[9]; 30 mg/kg i.p., days 0, 4, 8
  BW loss % (day): +25 (14) %
  Drug-related deaths: 1/6
  SGD (specific growth delay): −0.2
  T/C %: 100%
[9]; [14]
  BW loss % (day): −10 (14) %
  Drug-related deaths: 3/6
[9]; 45 mg/kg i.p., days 0, 4, 8
  BW loss % (day): +22 (14) %
  Drug-related deaths: 2/6
  SGD (specific growth delay): −0.3
  T/C %: 100%
[9]; daily schedule (days 0-4, 7-11)
  MTD: 16 mg/kg/day
[9]; intermittent schedule (4 days×3)
  MTD: 45 mg/kg/day

## arsenic trioxide
[10]
  LD50: 15.1 mg/kg
[8]; 3 mg/kg i.p., days 0, 7, 14
  BW loss % (day): +8.4 (14) %
  Drug-related deaths: 0/4
  Rating: + (+T/C < 50)
  SGD (specific growth delay): −0.1
  T/C %: 31%
[8]; 10 mg/kg i.p., days 0, 7, 14
  BW loss % (day): −5.0 (11) %
  Drug-related deaths: 1/4
  Rating: + (+T/C < 50)
  SGD (specific growth delay): −0.2
  T/C %: 41%
[8]; [15]
  BW loss % (day): 5%
  Drug-related deaths: one (1) out of four (4) mice died
[8]; 30 mg/kg i.p., days 0, 7, 14
  Drug-related deaths: 4/4
[8]; 30 mg/kg i.p., days 0, 7, 14, listed as arsenic trioxide
  Drug-related deaths: died within a few days after the first injection
[8]
  Maximum Tolerated Dose (MTD): 10 mg/kg/day
[11]
  Solubility: sparingly and extremely slowly soluble
[1]; 2 mg/kg i.p., days 25-35
  BW loss % (day): +9 (34) %
  Drug-related deaths: 0/8
  T/C %: 71%
[1]; 4 mg/kg i.p., days 25-35
  BW loss % (day): +10 (34) %
  Drug-related deaths: 0/8
  T/C %: 97%
[1]; 6 mg/kg i.p., days 25-35
  BW loss % (day): +10 (34) %
  Drug-related deaths: 0/8
  T/C %: 58%
[1]; small dose finding studies prior to the ALL-SCID 4 study
  MTD: 6 mg/kg/day
[12]; 0.1 μg/ml, 0.01 μg/ml and 0.001 μg/ml
  activity in panel of 41: no observed activity
[12]; 1 μg/ml, more than 70% growth inhibition
  cancer cell lines that responded, percent of 41: 2%
[12]; 10 μg/ml
  cancer cell lines in which active, percent of 41: 56%
[12]; breast (mammary) cancer cell lines
  selectivity (individual IC70<½ mean IC70), fraction of cell lines: ¼
[12]; leukemia cell lines
  selectivity (individual IC70<½ mean IC70), fraction of cell lines: ¾
[12]; melanoma cell lines
  selectivity (individual IC70<½ mean IC70), fraction of cell lines: 2/7
[12]; on the basis of μM
  fold less potent compared to sodium meta-arsenite, IC50: 17 fold
  fold less potent compared to sodium meta-arsenite, IC70: 12 fold
[12]; on μg/ml
  fold less potent compared to sodium meta-arsenite, IC50: 27 fold
  fold less potent compared to sodium meta-arsenite, IC70: 18 fold
[12]; [16]
  Mean IC50: 3.462 µg/mL
  Mean IC70: 6.022 μg/ml and 30.44 μM
  Mean IC90: 10.307 µg/mL
[12]; panel of 41 human cancer cell lines, listed as arsenic trioxide
  Mean IC70: 6.022 μg/ml and 30.44 μM
[12]; read-out: Mean IC50, panel of 41 human cancer cell lines
  IC50: 17.5 µM
[12]; read-out: Mean IC90, panel of 41 human cancer cell lines
  IC90: 52.1 µM
